The test system of experiment [1] is SW620 tumor organoids. As to conditions: SW620 tumor organoids; Compound 6.11 2.75 μM combined with 5FU.
Experiment [2] deals with Colo678 cells. The experiment can be described thus: Colo678 cell viability, combination with chemotherapy. It is filed as cell-based. As to conditions: Colo678 cells, 72 h; combined with SN-38.
Experiment [3] deals with AIF in SUM149PT cells. The experiment can be described thus: AIF immunofluorescence in SUM149PT (SUM149) cells. It counts as cell-based. The source says: CHD1Li-mediated PAR translocation to the cytoplasm activates PARthanatos as a cell death mechanism. Parthanatos is a form a programmed cell death different from apoptosis and known to be mediated by PARP1 overactivation. The unique events occurring during parthanatos are: PARP1 rapid activation, accumulation of PAR and nuclear translocation of apoptosis inducing factor (AIF). Without being bound by any particular theory, accumulation of PAR in the cytoplasm caused by CHD1Li can also mediate parthanatos. To better understand the link between PAR translocation to the cytoplasm and cell death, immunofluorescence to measure the activation of caspase-3 and the subcellular localization of AIF after treatment with SOC drugs and Compound 6 in SUM49PT cells was used. […] Without being bound by any particular theory, this might be caused by the mitochondrial outer membrane permeabilization, which triggers release of mitochondrial proteins like AIF or cytochrome c, activating caspase-3 by its cleavage and leading to apoptosis. […] Moreover, when combining CHD1L inhibition with SOC drugs, the cell death mechanism shifts from apoptosis to parthanatos, evidenced by a significant increase in AIF nuclear translocation and decrease in activation of caspase-3 (FIG. 25D-E).
The ability of Compounds 12, 15 and 16 to localize AIF was tested in SUM149 (breast cancer) and MDA-MB-231 (TNBC) cell lines. A comparison of the relative distribution of AIF in nuclei (a) versus cytoplasm (b) in SUM149 cells and nuclei (c) versus cytoplasm (d) in MDA-MB-231 cells in the presence of 4 μM Compounds 12, 15 and 16 are shown in FIG. 28. […] Similarly, AIF concentration in the cytoplasm of MDA-MB-231 cells decreased by about 0.5 after administration with Compound 15. After treatment with Compound 16, the relative concentration of AIF in the nuclei of SUM149 cells increased by about 0.5-fold, and the concentration of AIF in the cytoplasm decreased by about 0.4-fold. In MDA-MB-231 cells, the relative concentration of AIF in the cytoplasm decreased by about 0.5-fold, while the concentration of AIF increased in the nuclei by about 0.1-fold.

The subject of experiment [4] is SW948 tumor organoids. The experiment can be described thus: cells. Conditions: SW948 tumor organoids. On the procedure: ATM is an important protein involved in the initial stages of the DNA damage response. […] ATM mutations are important markers being developed to identify metastatic CRC (mCRC) patients that may be sensitive to DNA damaging chemotherapy.
Synergy was assessed using the Bliss model.

Experiment [5] has as its system MiaPaca2 cells. The experiment can be described thus: MiaPaca2 cell viability, combination with chemotherapy. Conditions: MiaPaca2 cells. It is filed as cell-based. The source says:
The cell viability assays and Bliss synergy analyses are as described above in Examples 1-9 and 11-12.

Where [6] appears, read: SUM149PT cells, single agent, 18 h.

In the case of `Cc1cc(Nc2ccc(NC(=O)Cc3cc(Br)cs3)cc2)nc(N2CCCC2)n1` [Compound 6.11, 2-(4-bromothiophen-2-yl)-N-(4-((6-methyl-2-(pyrrolidin-1-yl)pyrimidin-4-yl)amino)phenyl)acetamide], in experiment [1], the synergy score is ~ 30. Moreover, the “calculated mean synergy score” value is on record as “about 41” in experiment [2], “about 42” in experiment [5] (combined with 5-FU) and “about 29” in experiment [5] (combined with SN-38). For the same compound, the “AIF nuclear translocation in combination” value in experiment [3] (Compound 6.11 combined with doxorubicin or irinotecan/SN-38) is “resulted in AIF nuclear translocation”. Further, in experiment [3] (setting [6]), the “cytoplasmic AIF” value is “did not affect cytoplasmic AIF”. Moreover, in experiment [3] (setting [6]), the “nuclear AIF” value is reported as “increased nuclear AIF”. In addition, the Mean Synergy Score in experiment [4] (combined with 5FU) is recorded as ~ 72; in experiment [4] (combined with SN38) it was ~ 74. Moreover, the maximum synergy score in experiment [4] (combined with 5FU) is reported as around 82; in experiment [4] (combined with SN38), around 100.

Values taken from patent publication US20260240844A1, “INHIBITORS OF CHD1L AND USES THEREOF” (The Regents of the University of Colorado, a body corporate, priority 2023, published 2026).
